How the values were obtained:
PARP-1 = molecular target: T1, PARP-1 (Homo sapiens, UniProt P09874); experiment: PARP-1 inhibitory activity, HT universal colorimetric PARP assay kit (Trevigen); format: biochemical; details: estimation as calculated from a 4 point dose response curve; read-out: PARP-1 activity in vitro IC50
T1 construct: purchased Trevigen
Experimental: The compounds were tested for PARP-1 inhibitory activity by using HT universal colorimetric PARP assay kit obtained from Trevigen, following manufacturer's protocol.

[1] = test system: SW620 colorectal tumor cells (xenograft tumors); experiment: In vivo antitumor efficacy in combination with temozolomide (TMZ) in an SW620 tumor model; design: species or system Female athymic nude mice; details: for Tumor growth delay: time to RTV4 treated minus control
Experimental: On basis of the in vitro data, the ability of selected compounds to potentiate the antitumor activity of the methylating chemotherapeutic agent, temozolomide, was evaluated in an SW 620 tumor model.
Animals bearing SW 620 xenograft tumors were treated with the compounds in combination with TMZ (50 mg/Kg, po) once daily for 5 consecutive days, after which the tumors were left to grow out.
Female athymic nude mice were used for antitumor in vivo studies. SW620 colorectal tumor cells (1×10^7 cells per animal) were implanted s.c. into one flank of each mouse. When tumors were palpable (10-12 days after implantation), animals were treated (n=6-8/group) with five daily doses of temozolomide administered per os as a suspension in 0.5% methyl cellulose at 50 mg/kg either alone or in combination with a five daily per os administrations of PARP inhibitor at different doses. Tumor growths were measured using two-dimensional caliper measurements. Tumor volume was calculated using the equation a^2×b/2, where a is the smallest measurement and b is the largest. Data are presented as median relative tumor volumes (RTV), defined as the calculated tumor volume divided by the calculated tumor volume on the initial day of treatment (day 0). Thus, on day 0, the RTV value is 1 and RTV4 is when the tumor is four times as large as its initial value. Control animals were treated with vehicle ([…] in methyl cellulose) alone tumor growth delay (TGD)=Time to RTV4 in treated group−time to RTV4 control.

[2] = compound 10 mg/kg, po + TMZ 50 mg/kg, once daily for 5 days, compound 45 min before TMZ
[3] = compound 10 mg/kg, po + TMZ 50 mg/kg, once daily for 5 days

T1 sequence (P09874 whole entry): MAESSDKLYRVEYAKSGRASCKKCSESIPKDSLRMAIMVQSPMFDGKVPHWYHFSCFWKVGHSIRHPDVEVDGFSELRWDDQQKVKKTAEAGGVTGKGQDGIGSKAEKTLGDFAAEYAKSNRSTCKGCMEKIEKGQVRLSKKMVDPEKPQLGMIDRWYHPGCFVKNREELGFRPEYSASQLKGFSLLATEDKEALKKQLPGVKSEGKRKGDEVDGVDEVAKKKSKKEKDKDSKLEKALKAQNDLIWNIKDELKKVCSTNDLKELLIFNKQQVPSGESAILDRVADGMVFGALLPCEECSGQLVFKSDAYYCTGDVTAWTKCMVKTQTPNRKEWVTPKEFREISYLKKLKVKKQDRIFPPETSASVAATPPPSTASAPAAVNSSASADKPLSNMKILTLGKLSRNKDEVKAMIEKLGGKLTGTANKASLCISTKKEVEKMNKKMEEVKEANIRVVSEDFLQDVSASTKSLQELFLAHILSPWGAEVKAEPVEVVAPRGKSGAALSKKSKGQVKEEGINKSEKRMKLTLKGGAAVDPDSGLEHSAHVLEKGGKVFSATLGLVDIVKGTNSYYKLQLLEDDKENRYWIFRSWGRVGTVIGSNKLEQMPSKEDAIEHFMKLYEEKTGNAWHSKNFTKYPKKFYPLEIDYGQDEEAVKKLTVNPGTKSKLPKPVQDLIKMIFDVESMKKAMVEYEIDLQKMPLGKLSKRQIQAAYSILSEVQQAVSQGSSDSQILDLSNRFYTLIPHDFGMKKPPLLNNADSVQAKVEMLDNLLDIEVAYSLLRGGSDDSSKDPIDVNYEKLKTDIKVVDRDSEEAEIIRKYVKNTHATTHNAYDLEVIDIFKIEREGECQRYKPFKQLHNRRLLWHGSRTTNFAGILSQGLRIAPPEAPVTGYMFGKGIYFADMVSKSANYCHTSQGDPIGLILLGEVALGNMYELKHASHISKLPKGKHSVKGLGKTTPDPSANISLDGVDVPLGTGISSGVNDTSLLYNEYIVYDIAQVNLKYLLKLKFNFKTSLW

For O=C(c1cc(Cc2n[nH]c(=O)c3ccccc23)ccc1F)N1Cc2cocc2C1 [Compound 20, 4-(3-(5,6-dihydro-4H-furo[3,4-c]pyrrole-5-carbonyl)-4-fluorobenzyl)phthalazin-1(2H)-one], the IC50 (PARP-1) was 11.8 nM, the “Median time to RTV4” value ([1]; compound 50 mg/kg, po + TMZ 50 mg/kg, once daily for 5 days, compound 45 min before TMZ) was 43 days and the “Tumor growth delay” value ([1]; compound 50 mg/kg, po + TMZ 50 mg/kg, once daily for 5 days) was 33 days.
With Cn1cc2c(n1)CN(C(=O)c1cc(Cc3n[nH]c(=O)c4ccccc34)ccc1F)C2 [Compound 35, 4-(4-fluoro-3-(2-methyl-2,4,5,6-tetrahydropyrrolo[3,4-c]pyrazole-5-carbonyl)benzyl) phthalazin-1(2H)-one] the IC50 (PARP-1) was 29.9 nM, the “Median time to RTV4” value [1, 2] was 50 days and the “Tumor growth delay” value [1, 3] was 40 days.
Cn1ncc2c1CN(C(=O)c1cc(Cc3n[nH]c(=O)c4ccccc34)ccc1F)C2 [Compound 36] was tested, and the IC50 (PARP-1) was 27.9 nM, the “Median time to RTV4” value [1, 2] was 37 days and the “Tumor growth delay” value [1, 3] was 27 days. For the same molecule, the “Median time to RTV4” value ([1]; compound 30 mg/kg, po + TMZ 50 mg/kg, once daily for 5 days, compound 45 min before TMZ) was 44 days, the “Tumor growth delay” value ([1]; compound 30 mg/kg, po + TMZ 50 mg/kg, once daily for 5 days) was 34 days and the “Median time to RTV4” value ([1]; compound 100 mg/kg, po + TMZ 50 mg/kg, once daily for 5 days, compound 45 min before TMZ) was 65 days. For the same molecule, the “Tumor growth delay” value ([1]; compound 100 mg/kg, po + TMZ 50 mg/kg, once daily for 5 days) was 55 days.
In the case of Cn1nnc2c(C(N)=O)ncn2c1=O [Temozolomide, reference compound], the “Median time to RTV4” value ([1]; Temozolomide alone 50 mg/kg, po, once daily for 5 consecutive days) is reported as 22 days and the “Tumor growth delay” value ([1]; Temozolomide alone 50 mg/kg, po, once daily for 5 days) is reported as 12 days.
“Mixture of 1 & 2 Ethyl 4-(3-(2,4,5,6-tetrahydropyrrolo[3,4-c]pyrazole-5-carbonyl)-4-fluorobenzyl)phthalazin-1(2H)-one [Compound 40]” was tested, and the IC50 (PARP-1) was 9.9 nM.
Work on “Mixture of 4-(4-fluoro-3-(1-methyl-1,4,5,6-tetrahydropyrrolo[3,4-c]pyrazole-5-carbonyl)benzyl)phthalazin-1(2H)-one compound with 4-(4-fluoro-3-(2-methyl-2,4,5,6-tetrahydropyrrolo[3,4-c]pyrazole-5-carbonyl)benzyl)phthalazin-1(2H)-one (1:3) [Compound 28]” yielded an IC50 (PARP-1) of 20.7 nM.
“Mixture of (1 & 2 isopropyl) 4-(4-fluoro-3-(1,4,5,6-tetrahydropyrrolo[3,4-c]pyrazole-5-carbonyl)benzyl)phthalazin-1(2H)-one [Compound 44]” gave an IC50 (PARP-1) of 19.9 nM.

— patent US9598418B2, “Substituted phthalazin-1 (2H)-one derivatives as selective inhibitors of poly (ADP-ribose) polymerase-1” (CADILA HEALTHCARE LIMITED, priority 2012, dated 2017)
